Measured values as given in patent US9193722B2, “Tri-cyclic pyrazolopyridine kinase inhibitors” (Vertex Pharmaceuticals Incorporated, priority 2008, dated 2015).

How the values were obtained:
Format in all cases: biochemical
PKC theta kinase = PKC theta kinase (Homo sapiens, UniProt Q04759); assay: PKC theta kinase inhibition, coupled-enzyme (NADH absorbance) assay, Ki; settings: 240 μM ATP, 18 nM PKC theta kinase, 30° C.
Method in brief: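 Enzyme and compound equilibrated 10 min at 30 °C before reaction in HEPES pH 7.5 buffer with MgCl2, NaCl, EDTA and Brij. Activity tracked as NADH loss at 340 nm through a coupled system. Initial-rate data fitted by non-linear regression to give Ki.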

PKC delta kinase = PKC delta kinase (Homo sapiens, UniProt Q05655); assay: PKC delta kinase inhibition, coupled-enzyme (NADH absorbance) assay, Ki; settings: 150 μM ATP, 46 nM PKC delta kinase, 30° C.; read-out: Ki PKC delta
Sequence of PKC delta kinase (Q05655 whole entry): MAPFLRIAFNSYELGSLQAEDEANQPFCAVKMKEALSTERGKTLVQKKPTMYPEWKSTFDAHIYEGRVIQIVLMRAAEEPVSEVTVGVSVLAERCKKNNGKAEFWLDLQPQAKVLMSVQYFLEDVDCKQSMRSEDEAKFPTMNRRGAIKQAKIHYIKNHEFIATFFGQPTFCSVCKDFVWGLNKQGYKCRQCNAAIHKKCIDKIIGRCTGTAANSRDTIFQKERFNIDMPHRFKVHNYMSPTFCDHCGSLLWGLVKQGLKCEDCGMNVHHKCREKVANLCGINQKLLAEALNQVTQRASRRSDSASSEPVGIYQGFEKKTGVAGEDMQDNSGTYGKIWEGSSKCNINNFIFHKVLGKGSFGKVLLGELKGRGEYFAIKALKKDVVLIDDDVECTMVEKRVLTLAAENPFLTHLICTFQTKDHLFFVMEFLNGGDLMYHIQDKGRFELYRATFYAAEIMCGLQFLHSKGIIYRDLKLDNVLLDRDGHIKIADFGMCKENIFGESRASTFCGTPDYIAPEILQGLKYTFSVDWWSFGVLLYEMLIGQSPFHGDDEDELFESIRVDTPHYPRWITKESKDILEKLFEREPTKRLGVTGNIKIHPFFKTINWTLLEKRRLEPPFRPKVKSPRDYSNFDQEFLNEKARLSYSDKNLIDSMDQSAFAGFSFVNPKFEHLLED
Method in brief: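 Enzyme and compound pre-equilibrated 10 min at 30° C before adding ATP to 150 μM final. Buffer: HEPES pH 7.5 (100 mM), 10 mM MgCl2, 25 mM NaCl, 0.1 mM EDTA, 0.01% Brij.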

PKC alpha kinase = PKC alpha kinase (Homo sapiens, UniProt P17252); assay: PKC alpha kinase inhibition, coupled-enzyme (NADH absorbance) assay, Ki; settings: 130 μM ATP, 4.5 nM PKC alpha kinase, 30° C.
Method in brief: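 Ki derived by non-linear regression of initial rates from a coupled assay tracking NADH absorbance at 340 nm over 15 min at 30 °C. ATP was 130 μM final after a 10 min compound–enzyme preincubation in HEPES pH 7.5 buffer with MgCl2, CaCl2, NaCl, EDTA and Brij.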

Sequence of PKC theta kinase (Q04759 whole entry): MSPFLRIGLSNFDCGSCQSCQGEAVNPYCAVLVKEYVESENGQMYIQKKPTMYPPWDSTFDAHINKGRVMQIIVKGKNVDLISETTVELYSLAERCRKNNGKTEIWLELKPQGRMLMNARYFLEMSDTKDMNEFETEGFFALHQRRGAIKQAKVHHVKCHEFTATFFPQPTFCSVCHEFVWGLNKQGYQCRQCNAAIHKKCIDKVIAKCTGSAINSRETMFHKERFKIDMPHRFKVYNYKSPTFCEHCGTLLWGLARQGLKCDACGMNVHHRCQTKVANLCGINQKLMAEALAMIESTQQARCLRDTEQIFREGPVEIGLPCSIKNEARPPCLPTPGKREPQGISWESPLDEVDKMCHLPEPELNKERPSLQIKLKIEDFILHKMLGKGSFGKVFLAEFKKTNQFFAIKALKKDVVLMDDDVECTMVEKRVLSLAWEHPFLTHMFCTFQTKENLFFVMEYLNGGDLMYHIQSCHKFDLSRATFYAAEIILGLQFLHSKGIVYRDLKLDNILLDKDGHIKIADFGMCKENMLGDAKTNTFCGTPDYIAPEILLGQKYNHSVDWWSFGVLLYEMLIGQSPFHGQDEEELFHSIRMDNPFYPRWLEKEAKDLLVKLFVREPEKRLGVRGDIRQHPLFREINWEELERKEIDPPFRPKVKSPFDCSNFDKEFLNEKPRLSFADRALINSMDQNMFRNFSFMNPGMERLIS

Compound | Ki (PKC theta kinase) [µM] | Ki (PKC delta kinase) [µM] | Ki (PKC alpha kinase) [µM]
Cc1cc([C@@H]2CN(c3ccc(F)c(-c4n[nH]c5ncccc45)n3)CCN2)[nH]n1 [Compound 260] | < 0.5 | > 1.25 | > 1.25
NC1CN(c2cccc(-c3n[nH]c4ncccc34)n2)C1 [Compound 63] | < 2.8 | > 2 | > 1.25
NCC1CN(c2ccc(F)c(-c3n[nH]c4ncccc34)n2)C1 [Compound 387] | < 0.5 | > 1.25 | > 1.25
NC[C@@H]1CCCN1c1ccc(C(F)(F)F)c(-c2n[nH]c3ncccc23)n1 [Compound 356] | > 0.7 | > 1.25 | > 1.25
C1=C(c2cccc(-c3n[nH]c4ncccc34)n2)CCNC1 [Compound 157] | < 0.5 | > 1.25 | > 1.25
CC(C)C(C)C1CN(c2ccc(F)c(-c3n[nH]c4ncccc34)n2)CCN1 (stereo not drawn) [Compound 238] | < 0.05 | < 0.5 | > 1.25
CC(C)C[C@H]1CC(F)(c2cccc(-c3n[nH]c4ncccc34)n2)CCN1 (stereo partly drawn) [Compound 146] | < 0.5 | < 2.8 | > 1.25
CC(C)C(C)(O)C1CN(c2cc(CO)cc(-c3n[nH]c4ncccc34)n2)CCN1 (stereo not drawn) [Compound 454] | < 0.05 | < 0.5 | < 2.8
CCC[C@H]1CN(c2ccc(F)c(-c3n[nH]c4ncccc34)n2)C[C@H]1N [Compound 338] | < 0.5 | > 1.25 | > 1.25
Fc1cccc(C2CN(c3ccc(C(F)(F)F)c(-c4n[nH]c5ncccc45)n3)CCN2)c1 (stereo not drawn) [Compound 115] | < 0.05 | < 2.8 | < 2.8
CN(C)C(=O)CC1CN(c2ccc(C(F)(F)F)c(-c3n[nH]c4ncccc34)n2)CCN1 (stereo not drawn) [Compound 211] | > 0.7 | > 1.25 | > 1.25
CC(C)CC1(C(F)(F)F)CN(c2ccc(C(F)(F)F)c(-c3n[nH]c4ncccc34)n2)CCC1N (stereo not drawn) [Compound 405] | < 0.5 | < 0.5 | > 1.25
CC1(C)CN(c2cccc(-c3n[nH]c4ncccc34)n2)CCN1 [Compound 79] | < 0.05 | < 0.5 | > 1.25
Cc1cccc(C2CN(c3ccc(C(F)(F)F)c(-c4n[nH]c5ncccc45)n3)CCN2)c1 (stereo not drawn) [Compound 134] | < 0.05 | < 2.8 | < 2.8
CC(C)CC1(C)CN(c2ccc(C(F)(F)F)c(-c3n[nH]c4ncccc34)n2)CCN1 (stereo not drawn) [Compound 82] | < 0.05 | < 0.5 | < 0.5
CC(C)(F)CC1CN(c2cccc(-c3n[nH]c4ncccc34)n2)CCN1 (stereo not drawn) [Compound 71] | < 0.05 | < 0.5 | > 1.25
Clc1cnc2[nH]nc(-c3cccc(N4CCNCC4)n3)c2c1 [Compound 42] | < 0.5 | < 0.5 | < 0.5
CC(C)(F)CC1CN(c2ccc(C(F)(F)F)c(-c3n[nH]c4ncccc34)n2)CCN1 (stereo not drawn) [Compound 102] | < 0.05 | > 1.25 | > 1.25
CCC[C@H]1CN(c2ccc(C(F)(F)F)c(-c3n[nH]c4ncccc34)n2)C[C@@H]1N [Compound 341] | > 0.7 | > 1.25 | > 1.25
CC(C)CC1CN(c2ccc(C(F)(F)F)c(-c3n[nH]c4ncccc34)n2)CC(CF)N1 (stereo not drawn) [Compound 217] | > 0.7 | > 1.25 | > 1.25
FC(F)(F)c1ccc(N2CCNC(c3ccccc3)C2)nc1-c1n[nH]c2ncccc12 (stereo not drawn) [Compound 5] | < 0.05 | > 2 | > 1.25
